From PubChem BioAssay (NCI) come the findings set out here.

Among the test systems are HCC-2998 colon; UO-31 renal; T-47D breast; HCT-116 colon; OVCAR-5 ovarian; SN12C renal; OVCAR-8 ovarian; SK-MEL-5 melanoma; RPMI-8226 leukemia; EKVX NSCLC; DU-145 prostate; SW-620 colon; NCI-H460 lung; MCF7 breast; SNB-19 CNS; IGROV1 ovarian; OVCAR-4 ovarian; HS 578T breast; RXF 393 renal; NCI-H522 lung.
Common to all, as to experiment: NCI-60 cell line screen, 48 h

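Results reflect a 48-hour exposure of cells in 96-well plates to compound at five concentrations. TGI: concentration producing complete growth inhibition.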

Regarding `COc1ccc(CNc2nc3cc(C(F)(F)F)ccc3nc2C(=O)O)cc1OC`, the TGI was 95.8 µM in the test with HCC-2998 colon; more than 100 µM with UO-31 renal; more than 100 µM in the test with T-47D breast; 75.4 µM with HCT-116 colon; more than 100 µM in the test with OVCAR-5 ovarian; 77.9 µM in the test with SN12C renal. Besides, the TGI was more than 100 µM in the test with OVCAR-8 ovarian; 43.7 µM in the test on SK-MEL-5 melanoma; 94.6 µM in the test with RPMI-8226 leukemia; more than 100 µM in the test on EKVX NSCLC; more than 100 µM in the test on DU-145 prostate; more than 100 µM with SW-620 colon. Moreover, the TGI in the test with NCI-H460 lung was more than 100 µM; in the test with MCF7 breast, 95 µM; in the test on SNB-19 CNS, more than 100 µM; in the test on IGROV1 ovarian, 66 µM; with OVCAR-4 ovarian, more than 100 µM.

Regarding `CCOC(=O)C(NC(=O)c1ccccc1)(Nc1ccc(S(=O)(=O)Nc2nc(C)cc(C)n2)cc1)C(F)(F)F` (centres undefined), the TGI in the test on HS 578T breast, with HCC-2998 colon, in the test on UO-31 renal, with RXF 393 renal, in the test with T-47D breast and in the test on HCT-116 colon was more than 100 µM throughout. The TGI with OVCAR-5 ovarian, in the test with SN12C renal, in the test on OVCAR-8 ovarian, in the test with SK-MEL-5 melanoma, with RPMI-8226 leukemia and with EKVX NSCLC was more than 100 µM each time. Further, the TGI in the test with DU-145 prostate, in the test on SW-620 colon, in the test with NCI-H460 lung, in the test on MCF7 breast, in the test with SNB-19 CNS and with IGROV1 ovarian was more than 100 µM in each case. Moreover, the TGI with OVCAR-4 ovarian is more than 100 µM.

With `CCCCCCCCCCCCn1c(=O)cc(NCCCC)c2cc3c(NCCCC)cc(=O)n(CCCCCCCCCCCC)c3nc21`, the TGI in the test on HCC-2998 colon, with UO-31 renal, with T-47D breast, with HCT-116 colon, in the test on NCI-H522 lung and with SN12C renal was more than 100 µM throughout. Also, the TGI in the test on SK-MEL-5 melanoma, in the test on RPMI-8226 leukemia, in the test on DU-145 prostate, in the test on NCI-H460 lung, with MCF7 breast and in the test on SNB-19 CNS was more than 100 µM each time. In addition, the TGI in the test on OVCAR-4 ovarian was more than 100 µM.

On to `CCc1ccc(Nc2cc(=O)[nH]c(SCc3ccccc3)n2)cc1`, for which the TGI in the test with HS 578T breast, with UO-31 renal, in the test on RXF 393 renal, with T-47D breast, in the test with HCT-116 colon and in the test on OVCAR-5 ovarian was more than 100 µM each time. For the same molecule, the TGI in the test on NCI-H522 lung, with SN12C renal, in the test on OVCAR-8 ovarian, in the test on SK-MEL-5 melanoma, in the test with RPMI-8226 leukemia and in the test on EKVX NSCLC was more than 100 µM each time. The TGI in the test with DU-145 prostate, in the test with SW-620 colon, with MCF7 breast, with SNB-19 CNS and in the test with IGROV1 ovarian was more than 100 µM in each case.

As to `CC(=O)OCCCCn1cnc2nc(Nc3ccccc3)nc(Cl)c21`, the TGI in the test with HS 578T breast, in the test with HCC-2998 colon, in the test on UO-31 renal, with RXF 393 renal, in the test on T-47D breast and in the test with HCT-116 colon was more than 100 µM throughout. In addition, the TGI in the test on SN12C renal, in the test on OVCAR-8 ovarian, in the test on SK-MEL-5 melanoma, with RPMI-8226 leukemia, with EKVX NSCLC and in the test on SW-620 colon was more than 100 µM each time. The TGI with NCI-H460 lung, with MCF7 breast, in the test on SNB-19 CNS, with IGROV1 ovarian and in the test with OVCAR-4 ovarian was more than 100 µM in each case.

Regarding `Cc1ccc(S(=O)(=O)OC2=C/C(=N\c3onc(C)c3C)c3ccccc3C2=O)cc1`, the TGI is more than 100 µM in the test with HS 578T breast; 30.7 µM in the test on UO-31 renal; 64.8 µM in the test with T-47D breast; 37.7 µM in the test with HCT-116 colon; 42.1 µM with OVCAR-5 ovarian; 21.1 µM in the test on NCI-H522 lung. For the same molecule, the TGI with SN12C renal is 37.4 µM; with OVCAR-8 ovarian it was 36.8 µM; in the test with SK-MEL-5 melanoma it was 38.7 µM; in the test on RPMI-8226 leukemia, 53.8 µM; with EKVX NSCLC, more than 100 µM; in the test with DU-145 prostate, more than 100 µM. In addition, the TGI was 80.1 µM with SW-620 colon; more than 100 µM in the test on NCI-H460 lung; 33.5 µM with MCF7 breast; 64.8 µM in the test with SNB-19 CNS; 29.9 µM in the test with OVCAR-4 ovarian.

Take `COc1[nH]c(C(Cl)(Cl)Cl)c(Cl)c(=O)c1Cl`: the TGI with HCC-2998 colon, in the test on UO-31 renal, in the test on T-47D breast, with HCT-116 colon, in the test with OVCAR-5 ovarian and in the test with NCI-H522 lung was more than 100 µM each time. Also, the TGI with SN12C renal, with OVCAR-8 ovarian, with SK-MEL-5 melanoma, in the test with RPMI-8226 leukemia, in the test with EKVX NSCLC and in the test on DU-145 prostate was more than 100 µM in each case. Besides, the TGI with SW-620 colon, in the test with NCI-H460 lung, in the test on MCF7 breast, in the test with SNB-19 CNS, with IGROV1 ovarian and in the test on OVCAR-4 ovarian was more than 100 µM throughout.

For `CSC(=NCCCCN=C(NS(=O)(=O)c1ccc(Cl)cc1)SC)NS(=O)(=O)c1ccc(Cl)cc1`, the TGI in the test with HCC-2998 colon, in the test with UO-31 renal, with T-47D breast, in the test with HCT-116 colon, with OVCAR-5 ovarian and with SN12C renal was more than 100 µM in each case. Further, the TGI in the test with OVCAR-8 ovarian, with RPMI-8226 leukemia, with EKVX NSCLC, in the test on DU-145 prostate, in the test on SW-620 colon and in the test on NCI-H460 lung was more than 100 µM throughout. Besides, the TGI in the test on MCF7 breast, in the test on SNB-19 CNS, with IGROV1 ovarian and with OVCAR-4 ovarian was more than 100 µM throughout.
